The results in this text go back to patent US4318989A, “Starch-degrading enzymes from Cladosporium resinae” (Lifeline Products, Inc., priority 1980, dated 1982).

Assay [1] deals with Cladosporium resinae glucoamylase S. Put plainly: Kinetic constants of glucoamylases (release of glucose from substrate). Format: biochemical, Cladosporium resinae (ATCC No. 20495). Conditions: Table VI.
Assay [2] relates to Aspergillus niger glucoamylase II. The description is as above. Format: biochemical. The following applies: Table VI. The method, then: In assaying the rate of release of glucose from starch, pullulan or maltose, enzyme solution (culture solution) (0.1 ml) undiluted or diluted up to 100-fold, was incubated with substrate solution (0.5 ml) for 5 to 20 minutes at 37° C. […]. This reaction was terminated and the color developed by adding 50% HCl solution (2 ml). Substrates employed were pullulan, maltose and J. T. Baker Starch (Lintner) Soluble all at 5 mg/ml concentration and in 0.1 M sodium acetate buffer pH 4.3. α-amylase was assayed by the method described in Marshall, J.J., et al, Clinica Chemica Acta, 76, 277 (1977).
The relative rates of hydrolysis of several glucooligosaccharides and polysaccharides are shown in Table V based upon data shown in FIG. 6-11. Results are compared to those obtained using Aspergillus niger glucoamylase II. […] Table VI provides the kinetic constants of the Cladosporium resinae glucoamylases and Asperigillus niger glucoamylase.

For `OC[C@H]1O[C@H](O[C@H]2[C@H](O)[C@@H](O)C(O)O[C@@H]2CO)[C@H](O)[C@@H](O)[C@@H]1O` (mixture of isomers) [Maltose], the VMAX in assay [1] is 2.9 μmoles glucose released per mi; in assay [2] it was 4.8 μmoles glucose released per mi.
